Tests used:
[1] = system: stem cells; assay: Western blotting of senescence, stemness, proliferation and TLR3 signaling proteins; assay type: cell-based; details: JAK1 inhibitor pretreated 2 hours before poly IC 1 ug/ml, 2 days after poly IC
Protocol: More specifically, the stem cells were plated in a 10 cm dish (3×10^5 cells/dish) and treated with poly IC (1 ug/ml) one day later. […] After 2 days of poly IC treatment, western blotting was performed for analyzing the protein expression. For this, the cells were treated with RIPA lysis buffer (1% Np-40, 0.5% Na-deoxycholate, 0.4% SDS, 0.15 M NaCl, 0.05 M Tris-HCl (pH 8), Halt Protease and Phosphatase Inhibitor Cocktail (78440, Thermo Scientific)) and reacted in ice for 30 minutes to extract the cells. The cell lysate was centrifuged and the supernatant was collected and quantified using bicinchoninic acid protein assay kit (23225, Thermo Scientific). 10 ug of the protein extract was separated by 12% SDS-PAGE and transferred to a nitrocellulose membrane. After reacting for 1 h in blocking buffer (0.1% Tween 20, 5% BSA in tris buffered saline) at room temperature (RT), the primary antibody was treated and reacted overnight at 4° C. […] After washing three times with TBST solution, peroxidase-conjugated secondary antibody was reacted for 1 hour at RT and protein bands were analyzed using C-DiGit Blot Scanner (LI-COR).

[2] = system: stem cells; assay: real time PCR of senescence, stemness, proliferation and TLR3 signaling genes; assay type: cell-based; details: pre-treatment before poly IC
Protocol: The present inventors have confirmed the expression of proteins involved in proliferation and differentiation promotion of stem cell and stemness increase according to tofacitinib treatment using real time PCR. For this, cells were treated with TRIzol reagent to lyse the cells, and treated with chloroform to separate the aqueous solution layer containing the RNA. The separated aqueous solution was treated with isopropanol to precipitate RNA and centrifuged to extract RNA only. […] Real-time PCR was performed using the CFX Connect Real-Time PCR Detection System (Bio-rad) and primers used were shown in Table 1. Relative mRNA expression levels were analyzed using the comparative threshold cycles (2-^Ct) method.

[3] = system: stem cells; assay: BrdU assay of cell survival rate after poly IC; assay type: cell-based; details: tofacitinib 1 ug/ml pretreated 2 hours before poly IC 1 ug/ml; BrdU ELISA 2 days after poly IC
Protocol: More specifically, cells were plated in 96 wells (1×10^3 cells/well) and treated with poly IC (1 μg/ml) one day later. […] After 2 days of poly IC treatment, cell survival rate was measured using BrdU cell proliferation ELISA (11647229001, Roche). For this, the BrdU labeling solution was treated at 10 μl/well for 4 hours at 37° C. Then, fixdenat buffer was treated by 200 ul/well for 30 minutes to immobilize the cells and reacted with 100 ul/well of anti BrdU-POD solution for 90 minutes. Thereafter, 100 ul of the substrate solution was treated, the OD value at 370 nm wavelength was measured by ELISA, and the cell survival rate was plotted.

[4] = system: stem cells; details: FACS analysis and real time PCR; pre-treatment of tofacitinib before poly IC
Protocol: More specifically the stem cells were treated with trypsin/EDTA and separated into single cells and mouse anti-human HLA-ABC (555553, BD Biosciences) was reacted at RT for 1 hour and washed three times and then analyzed using a FACS calibur instrument (BD Biosciences).

[5] = system: stem cells; assay: real time PCR of TGF-b and HGF, proteins that inhibit T cell activity; assay type: cell-based; details: pre-treatment of tofacitinib before poly IC
Protocol: For this, cells were treated with TRIzol reagent to lyse the cells, and treated with chloroform to separate the aqueous solution layer containing the RNA. The separated aqueous solution was treated with isopropanol to precipitate RNA and centrifuged to extract RNA only. The extracted RNA was quantified using nanodrop. 2 ug of RNA was synthesized using TOPscript cDNA synthesis kit (RT200, Enzynomics) as a cDNA mixture and used as a template for real time PCR. […] Relative mRNA expression levels were analyzed using the comparative threshold cycles (2-^Ct) method.

[6] = system: stem cells; assay: SA-b-gal staining of poly IC-induced inflammatory senescence; assay type: cell-based; details: tofacitinib 1 ug/ml pretreated 2 hours before poly IC 1 ug/ml; measured 2 days after poly IC
Protocol: More specifically, stem cells were plated in 6 wells (2×10^4 cells/well) and treated with poly IC (1 ug/ml) one day later. […] After 2 days of the poly IC treatment, the degree of senescence was measured using senescence cells histochemical staining kit (CS0030, Sigma). For this, the plate was washed twice with PBS and fixed with fixation buffer (2% formaldehyde, 0.2% glutaraldehyde, 7.04 mM Na2HPO4, 1.47 mM KH2PO4, 0.137 M NaCl, and 2.68 mM KCl) for 6 minutes and reacted with staining buffer (6 mM Potassium Ferricyanide, 6 mM Potassium Ferrocyanide, 1 mg/ml X-gal Solution in phosphate buffer (pH 6)) at 37° C. for 24 hours. The number of b-galactoxidase-positive cells was measured by microscopic observation and the degree of cellular senescence was shown in a graph.

SMILES: O=C(Nc1nc2cccc(-c3ccc(CN4CCS(=O)(=O)CC4)cc3)n2n1)C1CC1 [filgotinib]
- expression of proteins associated with senescence (PCNA), stemness (EZH2, BMI-1), proliferation (survivin, CyclinD1) [1]: less decreased
- increase in expression of TLR3 signaling-related proteins (TLR3, IL6) [1]: less increased
- increase in expression of TLR3 signaling-related proteins (TLR3, IL6) [2]: less increased
- mRNA expression of the protein associated with senescence (PCNA), stemness (EZH2, BMI-1) and proliferation (survivin, CyclinD1) [2]: less decreased

SMILES: C[C@@H]1CCN(C(=O)CC#N)C[C@@H]1N(C)c1ncnc2[nH]ccc12 [tofacitinib]
- expression of proteins associated with senescence (PCNA), stemness (EZH2, BMI-1), proliferation (survivin, CyclinD1) [1]: less decreased
- increase in expression of TLR3 signaling-related proteins (TLR3, IL6) [1]: less increased
- cell survival rate by cellular senescence induced by poly IC [3]: less decreased
- increase of immunogenicity-related proteins HLA-A and HLA-B by poly IC treatment [4]: less increased
- decrease of TGF-b and HGF by treatment of poly IC [5]: less decreased
- increase in expression of TLR3 signaling-related proteins (TLR3, IL6) [2]: less increased
- mRNA expression of the protein associated with senescence (PCNA), stemness (EZH2, BMI-1) and proliferation (survivin, CyclinD1) [2]: less decreased
- inflammatory senescence induced by poly IC (b-galactoxidase-positive cells) [6]: significantly reduced

Source: patent publication US20190183900A1, “COMPOSITION FOR PROLIFERATION, DIFFERENTIATION PROMOTION, OR SENESCENCE INHIBITION OF STEM CELLS, CONTAINING JAK1 INHIBITOR AS ACTIVE INGREDIENT” (UNIVERSITY OF ULSAN FOUNDATION FOR INDUSTRY COOPERATION, priority 2016, published 2019)
